ChEMBL document CHEMBL1201862, “PubChem BioAssay data set” (2004)
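96-well plates; 48 h exposure; 5 concentrations. Endpoints by linear interpolation between flanking doses. Not reached: highest tested concentration assigned. GI50 = concentration required for 50% inhibition of growth.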 Activity calls are given as the source filed them. Cut-off read from the data, not from the text of the source: active = GI50 up to about 1.1 µM and inactive = higher.

Key:
Experiment in all cases: NCI anticancer screen, dose series, 48 h
786-0 = tested on: 786-0
A498 = tested on: A498
EKVX = tested on: EKVX
HCT-116 = tested on: HCT-116
HCT-15 = tested on: HCT-15
HOP-62 = tested on: HOP-62
HOP-92 = tested on: HOP-92
IGROV-1 = tested on: IGROV-1
LXFL 529 = tested on: LXFL 529
NCI-H460 = tested on: NCI-H460
OVCAR-4 = tested on: OVCAR-4
SF-295 = tested on: SF-295
SF-539 = tested on: SF-539
SK-MEL-28 = tested on: SK-MEL-28
SNB-19 = tested on: SNB-19
UACC-62 = tested on: UACC-62
RPMI-8226 = tested on: RPMI-8226
DU-145 = tested on: DU-145
MDA-MB-231 = tested on: MDA-MB-231
PC-3 = tested on: PC-3

| Structure (SMILES) | GI50 (786-0) | GI50 (A498) | GI50 (EKVX) | GI50 (HCT-116) | GI50 (HCT-15) [µM] | GI50 (HOP-62) | GI50 (HOP-92) | GI50 (IGROV-1) | GI50 (LXFL 529) | GI50 (NCI-H460) | GI50 (OVCAR-4) | GI50 (SF-295) | GI50 (SF-539) | GI50 (SK-MEL-28) | GI50 (SNB-19) | GI50 (UACC-62) | GI50 (RPMI-8226) | GI50 (DU-145) | GI50 (MDA-MB-231) | GI50 (PC-3) |
| --- | --- | --- | --- | --- | --- | --- | --- | --- | --- | --- | --- | --- | --- | --- | --- | --- | --- | --- | --- | --- |
| COc1cccc2nc3cc(C)c(C)cc3nc12 | > 100 µM (inactive) | > 100 µM (inactive) | > 100 µM (inactive) | > 100 µM (inactive) | > 100 | > 100 µM (inactive) | > 100 µM (inactive) | > 100 µM (inactive) | > 100 µM (inactive) | > 100 µM (inactive) | > 100 µM (inactive) | > 100 µM (inactive) | > 100 µM (inactive) | > 100 µM (inactive) | > 100 µM (inactive) | > 100 µM (inactive) | – | – | – | – |
| CCOC(=O)CN(Cc1ccccc1)Cc1c(C(=O)c2ccccc2)c2ccccc2n1C(=O)c1ccccc1 | > 100 µM (inactive) | > 100 µM (inactive) | > 100 µM (inactive) | 32.7 µM (inactive) | > 100 | > 100 µM (inactive) | 10.4 µM (inactive) | > 100 µM (inactive) | 8.57 µM (inactive) | > 100 µM (inactive) | > 100 µM (inactive) | > 100 µM (inactive) | > 100 µM (inactive) | > 100 µM (inactive) | > 100 µM (inactive) | > 100 µM (inactive) | 17.9 µM (inactive) | – | – | – |
| O=C(NC1=C(Cl)C(=O)c2ccccc2C1=O)C(=O)C(C(=O)c1ccc2ccccc2c1)C1OC(=O)c2ccccc21 (stereo not drawn) | 5.92 µM (inactive) | 4.68 µM (inactive) | 12 µM (inactive) | 3.52 µM (inactive) | 3.77 | 5.82 µM (inactive) | – | 7.73 µM (inactive) | 4.43 µM (inactive) | 2.96 µM (inactive) | 6.97 µM (inactive) | 3.3 µM (inactive) | 2.95 µM (inactive) | 4.59 µM (inactive) | 6.03 µM (inactive) | 1.73 µM (inactive) | 2.05 µM (inactive) | 10.6 µM (inactive) | – | – |
| CCC1(Cl)C(=O)NC(=O)N(C2CC(O)C(CO)O2)C1N=[N+]=[N-] (stereo not drawn) | > 100 µM (inactive) | > 100 µM (inactive) | > 100 µM (inactive) | – | – | > 100 µM (inactive) | > 100 µM (inactive) | > 100 µM (inactive) | > 100 µM (inactive) | > 100 µM (inactive) | > 100 µM (inactive) | > 100 µM (inactive) | > 100 µM (inactive) | > 100 µM (inactive) | > 100 µM (inactive) | > 100 µM (inactive) | > 100 µM (inactive) | – | – | – |
| COc1cc2c(cc1OC)[C@@H](Nc1ccc(F)cc1)C1COC(=O)[C@@H]1C2c1cc(OC)c(O)c(OC)c1 (stereo partly drawn) | 0.573 µM (active) | 1.14 µM (inactive) | > 38.2 µM (inactive) | 3.56 µM (inactive) | 1.67 | 0.128 µM (active) | – | 21.7 µM (inactive) | 19.6 µM (inactive) | < 0.0204 µM (active) | 16.7 µM (inactive) | 0.267 µM (active) | 0.594 µM (active) | 21.9 µM (inactive) | 1 µM (active) | 0.589 µM (active) | 0.16 µM (active) | – | – | – |
| Cc1ccc(C)c(N2C(=O)C(=O)C(c3nc4ccccc4o3)C(=O)C2=O)c1 | > 100 µM (inactive) | > 100 µM (inactive) | > 100 µM (inactive) | 27.1 µM (inactive) | 99.5 | > 100 µM (inactive) | 92 µM (inactive) | 35.9 µM (inactive) | 48.9 µM (inactive) | > 100 µM (inactive) | 37.6 µM (inactive) | > 100 µM (inactive) | > 100 µM (inactive) | 34 µM (inactive) | > 100 µM (inactive) | 43.9 µM (inactive) | – | – | – | – |
| Cc1cc(N(CCOS(C)(=O)=O)CCOS(C)(=O)=O)ccc1/C=N/c1ccc(-c2nc(Cc3ccccc3)sc2C)cc1 | 1.28 µM (inactive) | 1.55 µM (inactive) | 4.27 µM (inactive) | 15.2 µM (inactive) | 11.2 | 1.75 µM (inactive) | 8.71 µM (inactive) | 10.7 µM (inactive) | 16.6 µM (inactive) | 0.0281 µM (active) | 15.5 µM (inactive) | 1.57 µM (inactive) | 1.8 µM (inactive) | 14.2 µM (inactive) | 8.3 µM (inactive) | 1.47 µM (inactive) | 3.82 µM (inactive) | 0.834 µM (active) | 15.3 µM (inactive) | 10.3 µM (inactive) |
| COc1ccc([C@H]2[C@@H]3CCc4ccccc4C3=NN2C(N)=S)cc1OC | 54.2 µM (inactive) | > 100 µM (inactive) | 40.1 µM (inactive) | 47.9 µM (inactive) | 40.9 | 97.7 µM (inactive) | 35.4 µM (inactive) | 69.3 µM (inactive) | 24.2 µM (inactive) | 44.1 µM (inactive) | 41.4 µM (inactive) | – | > 100 µM (inactive) | 78 µM (inactive) | 77.3 µM (inactive) | 34 µM (inactive) | 37.9 µM (inactive) | – | – | – |
| COc1cccc(NC(=O)C(C)(C)C)c1SSc1c(NC(=O)C(C)(C)C)cccc1OC | 21.6 µM (inactive) | > 100 µM (inactive) | 64.1 µM (inactive) | 22.4 µM (inactive) | 20 | > 100 µM (inactive) | 36.1 µM (inactive) | > 81.1 µM (inactive) | 15.8 µM (inactive) | 60.4 µM (inactive) | 22.8 µM (inactive) | 36.9 µM (inactive) | 20.8 µM (inactive) | 32.7 µM (inactive) | 59 µM (inactive) | 19.3 µM (inactive) | 5.78 µM (inactive) | – | – | – |
| CN(C)C(=O)Nc1c([N+](=O)[O-])cc(C(F)(F)F)cc1[N+](=O)[O-] | > 100 µM (inactive) | > 100 µM (inactive) | > 100 µM (inactive) | 24.6 µM (inactive) | 37.1 | > 100 µM (inactive) | 53.5 µM (inactive) | > 100 µM (inactive) | 40.9 µM (inactive) | 42.9 µM (inactive) | 27.7 µM (inactive) | 63.4 µM (inactive) | 42 µM (inactive) | > 100 µM (inactive) | > 100 µM (inactive) | 46.9 µM (inactive) | 41.1 µM (inactive) | – | – | – |
| COc1cccc2c1C(=O)OC2c1cccc2ccccc12 (stereo not drawn) | 50.8 µM (inactive) | > 52.5 µM (inactive) | > 100 µM (inactive) | > 96.6 µM (inactive) | > 100 | 36 µM (inactive) | 30.9 µM (inactive) | > 100 µM (inactive) | > 100 µM (inactive) | 98.9 µM (inactive) | 37.8 µM (inactive) | 33.6 µM (inactive) | 63.7 µM (inactive) | > 100 µM (inactive) | 61.2 µM (inactive) | > 100 µM (inactive) | > 100 µM (inactive) | > 100 µM (inactive) | 36.4 µM (inactive) | > 100 µM (inactive) |
| N#CC(C(=O)/C(=N/Nc1nc(S)nn1N)C(C#N)c1ccccc1)c1ccccc1 (stereo not drawn) | > 100 µM (inactive) | > 100 µM (inactive) | > 100 µM (inactive) | > 100 µM (inactive) | > 100 | > 100 µM (inactive) | > 100 µM (inactive) | > 100 µM (inactive) | > 100 µM (inactive) | > 100 µM (inactive) | > 100 µM (inactive) | > 100 µM (inactive) | > 100 µM (inactive) | > 100 µM (inactive) | > 100 µM (inactive) | > 100 µM (inactive) | > 100 µM (inactive) | > 100 µM (inactive) | > 100 µM (inactive) | > 100 µM (inactive) |
| CNC(=O)OC1/C(C)=C\C(C)C(O)C(OC)CC(C)CC2=C(OC)C(=O)C=C(C2=O)N(C)C(=O)/C(C)=C/C=C\C1OC (stereo not drawn) | 4.31 µM (inactive) | 18.5 µM (inactive) | 11.9 µM (inactive) | 8.05 µM (inactive) | 6.76 | 14.4 µM (inactive) | 2.8 µM (inactive) | 10.8 µM (inactive) | 4.86 µM (inactive) | 11.1 µM (inactive) | 9.23 µM (inactive) | 24.4 µM (inactive) | 8.32 µM (inactive) | 2.88 µM (inactive) | 36.2 µM (inactive) | 3.84 µM (inactive) | 1.67 µM (inactive) | 9.64 µM (inactive) | 2.05 µM (inactive) | 11.5 µM (inactive) |
| N#CC(N)(C(=O)C(=O)NCCCNC(=O)C(=O)C(N)(C#N)c1ccc(Cl)cc1)c1ccc(Cl)cc1 (stereo not drawn) | > 100 µM (inactive) | > 100 µM (inactive) | > 100 µM (inactive) | > 100 µM (inactive) | > 100 | > 100 µM (inactive) | > 100 µM (inactive) | > 100 µM (inactive) | > 100 µM (inactive) | > 100 µM (inactive) | > 100 µM (inactive) | > 100 µM (inactive) | > 100 µM (inactive) | > 100 µM (inactive) | > 100 µM (inactive) | > 100 µM (inactive) | > 100 µM (inactive) | – | – | – |
| CC(C)C(NCc1c2ccccc2[n+](C)c2ccccc12)C(=O)O (stereo not drawn) | 4.66 µM (inactive) | 7.26 µM (inactive) | 10.6 µM (inactive) | 2.67 µM (inactive) | 3.68 | 13.8 µM (inactive) | 3.57 µM (inactive) | 8.59 µM (inactive) | 3.53 µM (inactive) | 5.94 µM (inactive) | 7.62 µM (inactive) | 6.76 µM (inactive) | 5.94 µM (inactive) | 12.9 µM (inactive) | 15.5 µM (inactive) | 3.56 µM (inactive) | 0.603 µM (active) | – | – | – |
| CC1=C2C(=O)C3[C@@H](CCC4=CC(=O)CC[C@@]43C)C2CC[C@]12O[C@@H]1C[C@H](C)CN[C@H]1[C@H]2C (stereo partly drawn) | 43.4 µM (inactive) | 32.3 µM (inactive) | 49 µM (inactive) | 30.6 µM (inactive) | 48.8 | 16.9 µM (inactive) | 48.2 µM (inactive) | > 100 µM (inactive) | 34.5 µM (inactive) | 33.5 µM (inactive) | > 100 µM (inactive) | 32.8 µM (inactive) | 45.4 µM (inactive) | 97.1 µM (inactive) | 44.4 µM (inactive) | 23.4 µM (inactive) | 20.7 µM (inactive) | – | – | – |
